Reference: patent US11591366B2, “Macrocyclic compounds and methods of preventing or treating pain” (SOCPRA SCIENCES SANTÉ ET HUMAINES S.E.C., priority 2017, dated 2023)
Read-outs that look alike come from different tables or passages of the source. One block for each molecule: values may come before it. Numbered stars: 1 amine (or outer) side, 2 acyl side, 3 side chain; on linkers, the order of the positions; unused ones are H or OH. Square brackets hold non-standard residues; d marks the D form. Peptide text beside a SMILES is read from it. X3 = NCCCC[C@H](N)CN([C@@H](CCCCN)C(=O)[*:2])[*:1]; Tle = CC(C)(C)[C@H](N)C(=O)O

Tests used:
Plasma stability assay = format: in vitro ADME; details: rat plasma at 37° C.
Experimental: Rat plasma was obtained by centrifugation of rat blood (13000 rpm, 5 min, 4° C.). […] Proteolytic degradation was quenched by adding 70 μL of acetonitrile/ethanol (1:1), 0.5% nicotinamide solution and vortexing. […] Data were analyzed using GraphPad Prism 7's one phase decay equation.

[1] = molecular target: T1, hNTS1 (β-arrestin 2 recruitment) (Homo sapiens, UniProt P30989); assay: BRET biosensor assay, β-arrestin 2 recruitment; format: cell-based
T1 construct: expressed in transfected cells; host or cells: CHO-K1, transient transfection with PEI
Experimental: CHO-K1 cells were cultured in DMEM-F12 supplemented with 10% FBS, 100 U/mL penicillin, 100 μg/mL streptomycin, and 20 mM HEPES at 37° C. in a humidified chamber at 5% CO2. Cells were seeded into T75 flasks at a density of 20 000 cells/cm^2; 24 h later, cells were transfected with plasmids coding for hNTS1-Green fluorescent protein 10(GFP10)/Rluc (Renilla Luciferase)II-β-arrestin 1 or hNTS1-GFP10/RlucII-β-arrestin2, or with hNTS1/Gαq-RlucII/Gβ1/IGFP10-Gγ1 or hNTS1/Gα13-RlucII/Gβ1/GFP10-Gγ1 using polyethylenimine (PEI). Cells were transferred into 96-well plates at a concentration of 50 000 cells/well 24 h after transfection and incubated at 37° C. overnight. They were then washed with PBS and 90 μL HBSS was added in each well. […] After stimulation, coelenterazine 400A was added in each well to a final concentration of 5 μM and the plate was read using filter selected for BRET2 measurement (BRET2 High efficiency filter set, λemRlucII: 410±80 nm, λemGFP10: 515±40 nm) on a Mithras 2 plate reader (Berthold Technologies, Tennessee, USA). BRET2 ratio was determined as GFP10em/RlucIIem. […] EC50 (Effective Concentration 50) values were determined using the dose response-stimulation log(agonist) vs response (three parameters) and represent the mean±SEM of at least three separate experiments, each performed in triplicate.
NTS1 is capable of activating several signaling pathways, thus the activation of Gαq, Gα13, β-arrestin 1 and β-arrestin 2 pathways was monitored. The ability of compounds of the invention to activate the NTS1 receptor was assessed using Bioluminescence Resonance Energy Transfer (BRET)-based biosensors, reporting the dissociation of G proteins (Table III, column EC50 Gq) and the recruitment of β-arrestins to the receptor (Table III, column EC50 βarr).

rats = assay: Blood pressure (hypotension); format: in vivo, rat; details: 0.01 mg/kg; for Arterial blood pressure response / Blood pressure drop, first phase / Blood pressure in phase 3: rat, i.v.
Experimental: Mean, systolic and diastolic arterial blood pressure and a heart rate were measured through a catheter (PE 50 filled with heparinized saline) inserted in the right carotid artery and connected to a Micro-Med™ transducer (model TDX-300, USA) linked to a blood pressure Micro-Med™ analyzer (model BPA-100c). Another catheter (PE 10 filled with heparinized saline) was inserted in the left jugular vein for injection of test compounds at 0.01 mg/kg (volume 1 mL/kg, 5-10 s) or 0.9% saline. Blood pressure was recorded each second for up to 900 seconds following intravenous injection.

rNTS2 receptor = molecular target: T2, rNTS2 receptor (Rattus norvegicus, UniProt Q63384); assay: Competitive radioligand binding assay on the rNTS2 receptor; details: for inhibition at 1 µM: 1 μM macrocycle dose, read-out: NTS2 % displ at 1 μM (radiolabeled neurotensin displaced); for IC50: 125I-[Tyr3]-NT competition, rNTS2 membranes, read-out: NTS2 IC50
T2 construct: expressed in transfected cells; host or cells: DRG-F11 cells, transient transfection, membranes
T2 sequence (Q63384 1-416): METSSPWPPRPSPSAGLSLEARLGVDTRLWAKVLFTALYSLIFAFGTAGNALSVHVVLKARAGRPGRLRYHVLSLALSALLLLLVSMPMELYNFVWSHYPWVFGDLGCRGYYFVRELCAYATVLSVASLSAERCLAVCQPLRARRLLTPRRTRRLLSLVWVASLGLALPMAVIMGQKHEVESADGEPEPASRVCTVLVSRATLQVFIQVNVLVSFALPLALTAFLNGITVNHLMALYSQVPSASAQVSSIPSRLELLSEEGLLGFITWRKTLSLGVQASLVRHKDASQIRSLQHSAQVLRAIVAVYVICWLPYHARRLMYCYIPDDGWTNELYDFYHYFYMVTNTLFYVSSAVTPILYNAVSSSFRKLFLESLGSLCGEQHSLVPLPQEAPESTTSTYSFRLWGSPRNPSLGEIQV
Experimental: DRG-F11 cells were cultured in DMEM supplemented with 10% FBS, 100 U/mL penicillin, 100 μg/mL streptomycin, and 20 mM HEPES.
Membranes were prepared by scraping cells off the culture dish with 50 mM Tris ph 7.5 and centrifuged at 15,000 g for 5 min at 4° C. The pellet was resuspended in 10 mM Tris, 1 mM EDTA pH 7.5 and sonicated for 30 s prior to be centrifugated at 15,000 g for 30 min at 4° C. The pellet was then re-suspended in binding 9 buffer. […] All other steps in binding experiments were unchanged comparing to the one using the NTS1 receptor.

hNTS1 receptor = hNTS1 receptor (Homo sapiens, UniProt P30989); assay: Competitive radioligand binding assay on the hNTS1 receptor; details: 125I-[Tyr3]-NT competition, hNTS1 membranes; mean ± SEM; read-out: NTS1 IC50
Experimental: CHO-K1 (Chinese Hamster Ovary) cells stably expressing hNTS1 (ES-690-C from PerkinElmer, Montréal, Canada) were cultured in DMEM F12 culture medium at 37° C. in a humidified chamber under 5% CO2. Culture media were supplemented with 10% FBS, 100 U/mL penicillin, 100 μg/mL streptomycin, 20 mM HEPES, and 0.4 mg/mL G418 at 37° C.
Cells were frozen when they reached 80% confluency. They were scrapped off the dish with 10 mM Tris buffer, 1 mM EDTA, pH 7.5 and centrifuged at 15,000 g for 5 min at 4° C. The pellet was then re-suspended in binding buffer.
Competitive radioligand binding experiments were performed by incubating 15 μg of cell membranes expressing the hNTS1 receptor with 45 pM of ^125I-[Tyr^3]-NT (2200 Ci/mmol purchased from PerkinElmer, Billerica, Mass.) in binding buffer (50 mM Tris-HCl, pH7.5, 0.2% BSA) in the presence of increasing concentrations of the compounds of the invention ranging from 10^−11 to 10^−4 M for 60 min at 25° C. […] Glass filters were then counted using a γ-counter (2470 Wizard2, PerkinElmer, Missisauga, Ontario, Canada).
IC50 (Inhibitory Concentration 50) values were determined from the competition curves as the unlabeled ligand concentration inhibiting half of the ^125I-[Tyr]-NT-specific binding. […]

[2] = molecular target: T3, hNTS1 (β-arrestin 1 recruitment) (Homo sapiens, UniProt P30989); assay: BRET biosensor assay, β-arrestin 1 recruitment; format: cell-based; details: CHO-K1 cells transiently transfected with hNTS1 and biosensors, mean ± SEM, read-out: EC50 β-arr1
T3 construct: expressed in transfected cells; host or cells: CHO-K1, transient transfection with PEI
Experimental: CHO-K1 cells were cultured in DMEM-F12 supplemented with 10% FBS, 100 U/mL penicillin, 100 μg/mL streptomycin, and 20 mM HEPES at 37° C. in a humidified chamber at 5% CO2. Cells were seeded into T75 flasks at a density of 20 000 cells/cm^2; 24 h later, cells were transfected with plasmids coding for hNTS1-Green fluorescent protein 10(GFP10)/Rluc (Renilla Luciferase)II-β-arrestin 1 or hNTS1-GFP10/RlucII-β-arrestin2, or with hNTS1/Gαq-RlucII/Gβ1/IGFP10-Gγ1 or hNTS1/Gα13-RlucII/Gβ1/GFP10-Gγ1 using polyethylenimine (PEI). Cells were transferred into 96-well plates at a concentration of 50 000 cells/well 24 h after transfection and incubated at 37° C. overnight. […] After stimulation, coelenterazine 400A was added in each well to a final concentration of 5 μM and the plate was read using filter selected for BRET2 measurement (BRET2 High efficiency filter set, λemRlucII: 410±80 nm, λemGFP10: 515±40 nm) on a Mithras 2 plate reader (Berthold Technologies, Tennessee, USA). BRET2 ratio was determined as GFP10em/RlucIIem. […] EC50 (Effective Concentration 50) values were determined using the dose response-stimulation log(agonist) vs response (three parameters) and represent the mean±SEM of at least three separate experiments, each performed in triplicate.
NTS1 is capable of activating several signaling pathways, thus the activation of Gαq, Gα13, β-arrestin 1 and β-arrestin 2 pathways was monitored. […]

[3] = 24 h is the longest time tested
[4] = BRET, CHO-K1 cells transiently transfected with hNTS1 and biosensors, mean ± SEM, read-out: EC50 β-arr2

T1 sequence (P30989 whole entry): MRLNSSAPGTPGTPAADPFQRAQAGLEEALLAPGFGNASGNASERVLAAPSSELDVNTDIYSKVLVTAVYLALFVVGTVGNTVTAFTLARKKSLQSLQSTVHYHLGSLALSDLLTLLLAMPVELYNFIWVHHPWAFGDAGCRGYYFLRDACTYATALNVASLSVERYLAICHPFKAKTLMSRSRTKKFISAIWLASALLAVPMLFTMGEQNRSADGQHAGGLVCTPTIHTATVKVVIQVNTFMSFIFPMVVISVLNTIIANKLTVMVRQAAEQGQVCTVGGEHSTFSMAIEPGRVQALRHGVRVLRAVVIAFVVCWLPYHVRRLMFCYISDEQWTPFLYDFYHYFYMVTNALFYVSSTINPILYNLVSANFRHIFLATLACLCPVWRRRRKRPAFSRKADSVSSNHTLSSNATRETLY
T1 sequence (P32121 whole entry partner): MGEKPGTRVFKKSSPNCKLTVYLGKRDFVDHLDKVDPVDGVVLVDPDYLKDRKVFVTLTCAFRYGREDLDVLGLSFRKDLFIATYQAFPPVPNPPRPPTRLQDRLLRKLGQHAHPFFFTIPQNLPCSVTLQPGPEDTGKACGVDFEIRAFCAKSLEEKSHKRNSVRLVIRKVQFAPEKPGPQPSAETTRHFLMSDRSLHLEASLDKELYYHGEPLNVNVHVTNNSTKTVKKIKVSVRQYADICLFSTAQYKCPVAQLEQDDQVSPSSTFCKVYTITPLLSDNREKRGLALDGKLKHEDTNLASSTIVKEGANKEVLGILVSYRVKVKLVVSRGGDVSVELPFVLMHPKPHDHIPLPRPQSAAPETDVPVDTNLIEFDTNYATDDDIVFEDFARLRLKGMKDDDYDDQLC
Sequence of hNTS1 receptor (P30989 whole entry): as the sequence (P30989 whole entry) above
T3 sequence (P30989 whole entry): as above
T3 sequence (P49407 whole entry partner): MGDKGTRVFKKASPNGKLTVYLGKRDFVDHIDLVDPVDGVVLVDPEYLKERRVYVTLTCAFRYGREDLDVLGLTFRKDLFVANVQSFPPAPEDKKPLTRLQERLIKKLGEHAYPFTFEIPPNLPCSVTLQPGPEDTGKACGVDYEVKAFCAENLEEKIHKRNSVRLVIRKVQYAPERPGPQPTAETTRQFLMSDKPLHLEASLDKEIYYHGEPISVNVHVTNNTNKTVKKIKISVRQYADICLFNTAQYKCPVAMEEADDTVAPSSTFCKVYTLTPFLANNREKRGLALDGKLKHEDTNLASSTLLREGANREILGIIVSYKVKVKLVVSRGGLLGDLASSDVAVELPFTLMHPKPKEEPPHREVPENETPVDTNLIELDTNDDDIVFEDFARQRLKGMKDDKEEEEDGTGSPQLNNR

half-life at […] (Plasma stability assay; [3]): 12 h | EC50 [1, 4]: 1.37 ± 0.126 µM
SMILES: CCC(C)[C@H](NC(=O)[C@@H]1Cc2ccc(O)c(c2)CC=CCCCCCCC(=O)N[C@@H](CCCCN)C(=O)N2CCC[C@H]2C(=O)N1)C(=O)NC(CC(C)C)C(=O)O (stereo partly drawn) [Compound 1, c[nonenoic acid KPY(All)]IL]

Plasma half-life (Plasma stability assay; [3]): 24 h | inhibition at 1 µM (rNTS2 receptor): 93%
SMILES: CCC(C)[C@H](NC(=O)[C@@H]1Cc2ccc(O)c(c2)CC=CCNCCCC[C@@H](N)C(=O)N[C@@H](CCCCN)C(=O)N2CCC[C@H]2C(=O)N1)C(=O)N[C@@H](CC(C)C)C(=O)O (stereo partly drawn) [Compound 4, c[K(All)KPY(All)]IL]

IC50 (hNTS1 receptor): 0.5 ± 0.022 µM | Plasma half-life (Plasma stability assay; [3]): 24 h | EC50 [1, 4]: 0.096 ± 5e-05 µM | EC50 [2]: 0.096 ± 7e-05 µM | inhibition at 1 µM (rNTS2 receptor): 93%
SMILES: CCC(C)[C@H](NC(=O)[C@@H]1Cc2ccc(O)c(c2)CC=CCNCCCCCC(=O)N[C@@H](CCCCN)C(=O)N2CCC[C@H]2C(=O)N1)C(=O)N[C@@H](CC(C)C)C(=O)O (stereo partly drawn) [Compound 6, c[aminohex-6-enoic acid(All)KPY(All)]IL]

half-life at […] (Plasma stability assay): 0.25 h | inhibition at 1 µM (rNTS2 receptor): 104%
SMILES: CCC(C)[C@H](NC(=O)[C@@H]1Cc2ccc(O)c(c2)CC=CCCNCCCC[C@H](N)C(=O)N[C@@H](CCCCN)C(=O)N2CCC[C@H]2C(=O)N1)C(=O)N[C@@H](CC(C)C)C(=O)O (stereo partly drawn) [Compound 9, c[K(butenyl)KPY(All)]IL]

half-life at […] (Plasma stability assay): 0.3 h | inhibition at 1 µM (rNTS2 receptor): 105%
SMILES: CCC(C)[C@H](NC(=O)[C@@H]1Cc2ccc(O)c(c2)CC=CCCCNCCCC[C@H](N)C(=O)N[C@@H](CCCCN)C(=O)N2CCC[C@H]2C(=O)N1)C(=O)N[C@@H](CC(C)C)C(=O)O (stereo partly drawn) [Compound 10, c[K(pentenyl)KPY(All)]IL]

inhibition at 1 µM (rNTS2 receptor): 78%
SMILES: CCC(C)[C@H](NC(=O)[C@@H]1Cc2ccc(O)c(c2)CC=CCCCCCCC(=O)N[C@@H](CCCNC(=N)N)C(=O)N2CCC[C@H]2C(=O)N1)C(=O)N[C@@H](CC(C)C)C(=O)O (stereo partly drawn) [Compound 11, c[nonenoic acid-RPY(All)]IL]

IC50 (hNTS1 receptor): > 10 µM | IC50 (rNTS2 receptor): 1.1 µM
SMILES: CCC(C)[C@H](NC(=O)[C@H]1Cc2ccc(O)c(c2)CC=CCCCCCC[C@](C)(N)C(=O)N[C@@H](CCCCN)C(=O)N2CCC[C@H]2C(=O)N1)C(=O)N[C@@H](CC(C)C)C(=O)O (stereo partly drawn) [Compound 12, c[OctenylAKPY(All)]IL]

Continued, molecule first:

SMILES: C=CCNCCCC[C@H](N)C(=O)N[C@@H](CCCCN)C(=O)N1CCC[C@H]1C(=O)N[C@@H](Cc1ccc(O)c(CC=C)c1)C(=O)N[C@H](C(=O)N[C@@H](CC(C)C)C(=O)O)C(C)CC (stereo partly drawn) [Compound 1-L, nonenoic acid KPY(All)IL]
Plasma half-life (Plasma stability assay; [3]): 4 h

SMILES: C=CCNCCCC[C@H](N)C(=O)N[C@@H](CCCCN)C(=O)N1CCC[C@H]1C(=O)N[C@@H](Cc1ccc(O)c(CC=C)c1)C(=O)N[C@H](C(=O)N[C@@H](CC(C)C)C(=O)O)C(C)CC (stereo partly drawn) [Compound 2-L, K(All)KPY(All)IL]
Plasma half-life (Plasma stability assay): 0.083 h

SMILES: CCC(C)[C@H](NC(=O)[C@@H]1Cc2ccc(O)c(c2)CC=CCCCCCC[C@](C)(N)C(=O)N[C@@H](CCCCN)C(=O)N2CCC[C@H]2C(=O)N1)C(=O)N[C@@H](CC(C)C)C(=O)O (stereo partly drawn) [Compound 3, c[OctenylAKPY(All)]IL]
Plasma half-life (Plasma stability assay; [3]): 24 h | EC50 [1]: 0.028 ± 0.0001 µM | Hypotension (I.V.) (rats): Triphasique | Arterial blood pressure response (rats): triphasic | Blood pressure drop, first phase (rats): about −25 mmHg | Blood pressure in phase 3 (rats): slowly returned towards baseline | inhibition at 1 µM (rNTS2 receptor): 96% | IC50 (rNTS2 receptor): 0.0258 µM

SMILES: CCC(C)[C@H](NC(=O)[C@@H]1Cc2ccc(O)c(c2)CC=CCN(S(=O)(=O)c2ccccc2[N+](=O)[O-])CCCC[C@H](N)C(=O)N[C@@H](CCCCN)C(=O)N2CCC[C@H]2C(=O)N1)C(=O)N[C@@H](CC(C)C)C(=O)O (stereo partly drawn) [Compound 5, c[K(All)(S(O)2(o-nitrophenyl))KPY(All)]IL]
half-life at […] (Plasma stability assay; [3]): 1.4 h | inhibition at 1 µM (rNTS2 receptor): 96% | IC50 (rNTS2 receptor): 0.511 µM

SMILES: CCC(C)[C@H](NC(=O)[C@@H]1Cc2ccc(O)c(c2)CC=CCNCC[C@H](N)C(=O)N[C@@H](CCCCN)C(=O)N2CCC[C@H]2C(=O)N1)C(=O)N[C@@H](CC(C)C)C(=O)O (stereo partly drawn) [Compound 8, c[Dab(All)KPY(All)]IL]
half-life at […] (Plasma stability assay; [3]): 2.5 h | inhibition at 1 µM (rNTS2 receptor): 64%

SMILES: CCC(C)[C@H](NC(=O)[C@H](Cc1ccc(O)cc1)NC(=O)[C@@H]1CCCN1C(=O)[C@H](CCCNC(=N)N)NC(=O)[C@@H](N)CCCNC(=N)N)C(=O)N[C@@H](CC(C)C)C(=O)O (stereo partly drawn) [NT 8-13, RRPYIL, reference compound]
half-life at […] (Plasma stability assay): 0.05 h | inhibition at 1 µM (rNTS2 receptor): 100%

SMILES: CCOC(=O)[C@H](CC(C)C)NC(=O)[C@@H](NC(=O)[C@H](Cc1c[nH]c2ccccc12)NC(=O)[C@@H]1CCCN1C(=O)[C@H](CCCCN)NC[C@@H](N)CCCCN)C(C)(C)C [PD149163, H-Lys-[ψCH2NH]-Lys-Pro-Trp-tertLeu-Leu-OEt, reference compound] (H-[X3]PW[Tle]L-OEt)
Arterial blood pressure response (rats): triphasic | Blood pressure drop, first phase (rats): about −25 mmHg | Blood pressure in phase 3 (rats): more sustained
